# Laboratory results as given in paper PMC7180617, “Biological Evaluation of 3-Benzylidenechromanones and Their Spiropyrazolines-Based Analogues” (Molecules, 2020).
# “And” between values parts separate entries of the source, which are not always exact repeats. Equal values may be shown once.
# How the values were obtained:
# erythrocytes = assay: Red blood cell morphology (phase-contrast microscopy); assay type: cell-based; conditions: 2% erythrocyte suspension, 37 °C, 1 h, phase contrast 400×
# Protocol: Studies on erythrocyte morphology complement the erythrotoxicity studies because they provide information on potential immediate interactions of the tested compounds with the erythrocyte lipid bilayer, and the possibility of creating pathological forms of erythrocytes, which are not able to carry oxygen. The effects of the synthesized compounds, and the two reference compounds chromanone and flavanone, on the morphology of erythrocytes is shown in Figure 6. Briefly, 2% RBC suspension was incubated with 0.9% NaCl (control samples) or tested compounds at various concentrations corresponding to their activity towards cancer cell lines.
# A 2% erythrocyte suspension was incubated at 37 °C for one hour with various concentrations of synthesized compounds. The morphology of the RBCs was examined by means of a phase contrast Opta-Tech inverted microscope, at 400× magnification, equipped with software (OptaView 7) for image analysis.
# [1] = Lipophilicity (logP) by RP-TLC; conditions: RP-18 F254S TLC plates
# HL-60 cells = assay: Cell cycle analysis by flow cytometry (propidium iodide); assay type: cell-based, human; conditions: for cell cycle, G1, mean / cell cycle, G2/M, mean / cell cycle, S, mean: mean of n=2; for cell cycle distribution, G1 / cell cycle distribution, G2 / cell cycle distribution, G2/M: HL-60, 20 h, mean ± SD, n = 2
# Outline: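 HL-60 (CCL 240) cells were grown in RPMI 1640 with 20% FBS, fixed and stored at −20 °C for 2–3 days. RNase A was applied at 37 °C for 10 min, then propidium iodide for 30 min at RT in the dark. Cell-cycle distribution was determined by flow cytometry from 10,000 gated cells.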
# [2] = test system: red blood cells (RBC membrane integrity); assay: Red blood cell lysis assay; assay type: cell-based; conditions: 2% RBC suspension, 37 °C, 1 h
# Description: All synthesized compounds with potential biological activity have to be tested for blood compatibility since xenobiotics will react with blood cells upon administration. In this case, biocompatibility refers to the quantification of cellular and plasma components of the blood. The measurement of the integrity of RBC membrane is considered a simple and reliable method for estimating hemocompatibility.
# The studies on biological material were approved by the Bioethics Committee of the Medical University of Lodz, Poland (RNN/109/16/KE). The blood samples were obtained from healthy donors at the Blood Donation Centre in Lodz. The procedure for plasma preparation for erythrotoxicity studies was described previously. The influence of synthesized compounds as well as two reference compounds flavanone and chromanone on RBC membrane integrity was performed by lysis assay which was conducted according to our previous protocol. Briefly, 2% RBC suspension in 0.9% NaCl was incubated at 37 °C for one hour with the tested compounds at various concentrations corresponding to their activity towards cancer cell lines or 0.9% NaCl (control). The samples were centrifuged at 3000 rpm for 10 min and the absorbance of the supernatant was measured at 550 nm. The results are presented as percentage of haemolysis where a sample containing 10 μL of 2.0% v/v Triton X-100 was regarded as a positive control contributing to 100% of haemolysis. A sample containing saline solution represented spontaneous haemolysis of RBCs (control). The studies were performed on four biological samples obtained from different blood donors (n = 4). The results are presented as mean ± standard deviation (SD). The coefficient of variability for the method was counted: W = 9.51%, n = 5.
# [3] = Figure S3, HL-60, 0.5 × IC50 (µM: quercetin 29, 1 1.5, 7 18, 10 4.7, 11 4.5, 12 6)
# [4] = Figure S3, HL-60, 0.5 × IC50, each of two repetitions
# [5] = Figure S3, HL-60, 1 × IC50 (µM: quercetin 58, 1 3, 7 35, 10 9.4, 11 9, 12 12)
# [6] = Figure S3, HL-60, 1 × IC50, each of two repetitions
# [7] = 0.5 × IC50 (µM: quercetin 29, 2 1.5, 7 18, 12 6, 11 4.5, 10 4.7)
# [8] = 1 × IC50 (µM: quercetin 58, 2 3, 7 35, 12 12, 11 9, 10 9.4)
smiles,measurement,setting,value
"O=C1/C(=C/c2ccccc2)COc2ccccc21 [Compound 7, (E)-3-benzylidene-chroman-4-one]",erythrocyte morphology (in words),erythrocytes,"primarily led to echinocytosis, however single anisocytes could also be detected"
same,chromatographic logP,[1],4.23
same,"cell cycle, G1, mean",HL-60 cells; [3],"57,71%"
same,"cell cycle, G2/M, mean",HL-60 cells; [3],"20,82%"
same,"cell cycle, S, mean",HL-60 cells; [3],"21,48%"
same,"cell cycle, G1, single repetitions",HL-60 cells; [4],"52,64% and 62,77%"
same,"cell cycle, G2/M, single repetitions",HL-60 cells; [4],"18,44% and 23,20%"
same,"cell cycle, S, single repetitions",HL-60 cells; [4],"18,79% and 24,16%"
same,"cell cycle, G1, mean","HL-60 cells; Figure S3, HL-60, 1 × IC50 (µM in parenthesis: quercetin 58, 1 3, 7 35, 10 9.4, 11 9, 12 12)","50,37%"
same,"cell cycle, G2/M, mean",HL-60 cells; [5],"26,09%"
same,"cell cycle, S, mean",HL-60 cells; [5],"23,55%"
same,"cell cycle, G1, single repetitions",HL-60 cells; [6],"51,06% and 49,68%"
same,"cell cycle, G2/M, single repetitions",HL-60 cells; [6],"26,04% and 26,13%"
same,"cell cycle, S, single repetitions",HL-60 cells; [6],"22,89% and 24,20%"
same,"cell cycle distribution, G1",HL-60 cells; [7],57.7 ± 7.2%
same,"cell cycle distribution, G2",HL-60 cells; [7],21.5 ± 3.8%
same,"cell cycle distribution, G2/M",HL-60 cells; [7],20.8 ± 3.4%
same,"cell cycle distribution, G1",HL-60 cells; [8],50.4 ± 1.0%
same,"cell cycle distribution, G2",HL-60 cells; [8],23.5 ± 0.9%
same,"cell cycle distribution, G2/M",HL-60 cells; [8],26.1 ± 0.1%
same,cells arrested in G2/M phase,"HL-60 cells; HL-60, concentrations of IC50 and 0.5 × IC50",20–26%
same,effect on RBC hemolysis / erythrocyte membrane integrity (in words),[2],no significant effects on RBC hemolysis were observed up to 35 µM
